25 compounds from ChEMBL document CHEMBL1142956, “Small molecule inhibitors of histone arginine methyltransferases: homology modeling, molecular docking, binding mode analysis, and biological evaluations” (J Med Chem, 2007) can be followed below.

The structures appear in SMILES notation.

For one assay, the target named is RmtA (Emericella nidulans, UniProt Q5VLE3). As to the kind of experiment: Inhibition of Aspergillus nidulans recombinant GST-RmtA expressed in BL21 cells.
For assay [1], the target named is Protein arginine N-methyltransferase 1 (Homo sapiens, UniProt Q99873). As to the kind of experiment: Inhibition of human recombinant GST-PRMT1 expressed in BL21 cells.

In the case of `O=C1OC2(c3ccc(O)cc3Oc3cc(O)ccc32)c2ccccc21` [FLUORESCEIN], the IC50 – broadly, the concentration at which inhibition is half-maximal – on RmtA amounted to 123 µM.
On to `CC1=C(CN(CC(=O)O)CC(=O)O)C(=O)C(C(C)C)=C/C1=C(\c1ccccc1S(=O)(=O)O)c1cc(C(C)C)c(O)c(CN(CC(=O)O)CC(=O)O)c1C`, for which the IC50 (in assay [1]; at RmtA) was above 34 µM in each case.
For `O=S(=O)(O)c1cc(O)c2ccc(NC(=S)Nc3ccccc3)cc2c1`, the IC50 at RmtA was 1360 µM.
Still for that read-out and setting: the figure for `O=C(Nc1ccc2c(O)cc(S(=O)(=O)O)cc2c1)Nc1ccc2c(O)cc(S(=O)(=O)O)cc2c1` is 88 µM.
As to `Cc1cc(C(=C2C=CC(=N)C=C2)c2ccc(N)cc2)ccc1N` [FUCHSIN, BASIC], the IC50 on RmtA (bl21) was 515 µM.
On to `Nc1ccc(C(=O)O)c(-c2c3ccc(=O)cc-3oc3cc(O)ccc23)c1`, for which the IC50 on RmtA is 710 µM.
For `O=C1NS(=O)(=O)c2ccccc21` [SACCHARIN], the half-inhibitory concentration (IC50) (in assay [1]; on RmtA) was above 510 µM throughout.
As to `Nc1ccc2c(O)cc(S(=O)(=O)O)cc2c1`, the IC50 on RmtA came out at 590 µM.
Consider `Cc1ccc(C(=O)Nc2ccc(S(=O)(=O)O)c3cc(S(=O)(=O)O)cc(S(=O)(=O)O)c23)cc1NC(=O)c1cccc(NC(=O)Nc2cccc(C(=O)Nc3cc(C(=O)Nc4ccc(S(=O)(=O)O)c5cc(S(=O)(=O)O)cc(S(=O)(=O)O)c45)ccc3C)c2)c1` [SURAMIN], for which the half-inhibitory concentration (IC50) came to 18.1 µM in assay [1] and 5.9 µM at RmtA.
`CC1=CC(=O)C(C(C)C)=C/C1=C(/c1cc(C(C)C)c(O)cc1C)c1ccccc1C(=O)O`: the IC50 (in assay [1]; at RmtA) was above 217 µM throughout.
For the compound `O=c1cc2oc3cc(O)c(O)cc3c(-c3ccccc3)c-2cc1O`, the IC50 on RmtA was 160 µM.
Same read-out and setting: in the case of `O=C(O)c1ccc(Nc2nc(Cl)nc(Cl)n2)cc1-c1c2ccc(=O)cc-2oc2cc(O)ccc12` it was 73 µM; in that of `O=C1C=CC(=C(c2ccc(O)cc2)c2ccccc2S(=O)(=O)O)C=C1`, above 263 µM.
Turning to `O=C1C=CC(=C(c2ccc(O)cc2)c2ccccc2C(=O)O)C=C1`, the IC50 worked out at 885 µM in assay [1] and 296 µM on RmtA.
`CN(C)c1ccc(/N=N/c2ccccc2C(=O)O)cc1`: at RmtA, the IC50 was determined as 2100 µM.
As for `O=[N+]([O-])c1ccc2c(/N=N/c3cccc4ccccc34)c(O)cc(S(=O)(=O)O)c2c1`, at RmtA, the IC50 amounted to 103 µM.
Same read-out and setting: in the case of `O=C(O)c1ccc(Nc2nc(Cl)nc(Cl)n2)cc1` it was 406 µM; in that of `O=C(Nc1ccccc1)Nc1ccc2c(O)cc(S(=O)(=O)O)cc2c1`, 1080 µM.
Still for that read-out and setting: in the case of `Nc1cc(S(=O)(=O)O)cc2cc(S(=O)(=O)O)cc(O)c12` it was 220 µM.
Turning to `Nc1c(Br)cc(C(=O)O)c(-c2c3cc(Br)c(=O)c(Br)c-3oc3c(Br)c(O)c(Br)cc23)c1Br`, the results for the IC50 (in assay [1]; on RmtA) were 4.8 µM and 22.3 µM, respectively.
The matching figures for `O=C1NC(=O)C(=Nn2c(=O)[nH]c(=O)[nH]c2=O)C(=O)N1`: above 164 µM and above 164 µM.
With `O=C1c2ccccc2C(=O)c2c1ccc(O)c2O` [ATHRAQUINONES A], the IC50 at RmtA was found to be 1220 µM.
The same measure, in the same setting: in the case of `CN(C)c1ccc(/N=N/c2ccc(S(=O)(=O)O)cc2)cc1` it was 490 µM.
Regarding `O=C(O)c1ccccc1-c1c2cc(Br)c(=O)c(Br)c-2oc2c(Br)c(O)c(Br)cc12`, the IC50 stood at 1.4 µM in assay [1] and 0.18 µM on RmtA.
`COc1cc(/C=C/C(=O)CC(=O)/C=C/c2ccc(O)c(OC)c2)ccc1O` [CURCUMIN]: the IC50 at RmtA stood at 1100 µM.
